According to PubChem BioAssay (NCI):
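Method: 48-hour compound exposure of cells in 96-well plates, five concentrations, linear interpolation of endpoints. The concentration for 50% growth inhibition is given as GI50. TGI: concentration producing complete growth inhibition.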

Legend:
Experiment in all cases: NCI anticancer screen, dose series, 48 h
[1] = tested on: NCI-H522 lung
[2] = tested on: MOLT-4 leukemia
[3] = tested on: NCI-H226 lung
[4] = tested on: OVCAR-8 ovarian
[5] = tested on: HCT-116 colon
[6] = tested on: BT-549 breast
[7] = tested on: SF-268 CNS
[8] = tested on: NCI-H23 lung
[9] = tested on: K-562 leukemia
[10] = tested on: SNB-75 CNS
[11] = tested on: COLO 205 colon
[12] = tested on: OVCAR-5 ovarian
[13] = tested on: MDA-N
[14] = tested on: HS 578T breast
[15] = tested on: SNB-19 CNS
[16] = tested on: LOX IMVI melanoma
[17] = tested on: MCF7 breast
[18] = tested on: HOP-92 NSCLC

Structure (SMILES)	TGI [1] [µM]	TGI [2] [µM]	TGI [3] [µM]	TGI [4] [µM]	TGI [5] [µM]	TGI [6] [µM]	TGI [7] [µM]	TGI [8] [µM]	TGI [9] [µM]	TGI [10] [µM]	TGI [11] [µM]	TGI [12] [µM]	TGI [13] [µM]	TGI [14] [µM]	TGI [15] [µM]	TGI [16] [µM]	GI50 [17] [µM]	TGI [17] [µM]	GI50 [18] [µM]	TGI [18] [µM]
COC(=O)[C@@H]1O[C@]12[C@@H](CO[Si](C)(C)C(C)(C)C)O[C@@H](n1cc(C)c(=O)[nH]c1=O)[C@@H]2O[Si](C)(C)C(C)(C)C	30.1	7.42	45.5	53.4	29.9	32.6	38	40.5	40.2	> 100	> 100	36.6	27.6	42.5	26	10.2				
c1cc2ccc1CNCCN1CCNCc3ccc(cc3)Oc3ccc(cc3)CNCCN(CCNCc3ccc(cc3)O2)CCNCc2ccc(cc2)Oc2ccc(cc2)CNCC1																	0.581	2.1	0.0202	0.0501
